Our source for the IC50 values is patent US8895585B2, “Nicotinamide derivative or salt thereof” (FUJIFILM Corporation, priority 2010, dated 2014).

The target of test [1] is T1, glutathione S-transferase (GST)-fused full-length human Syk protein (Homo sapiens, UniProt P43405).
T1 construct: (GST)-fused full-length human Syk protein; GST (glutathione S-transferase); purchased Carna Biosciences
Put plainly: Syk enzyme assay. The class given is biochemical. The method, boiled down: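 IC50 values come from a time-resolved FRET readout (615 and 665 nm) of substrate phosphorylation, measured after an EDTA stop and 1 h antibody binding. The kinase reaction ran 40 min at room temperature with 27 μM ATP and 0.4 μM biotin-peptide, following a 15 min compound preincubation with baculovirus-made GST-full-length human Syk.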

For another test, the system named is THP-1 cells. Put plainly: TNFα generation assay. To be noted: Homo sapiens. The class given is cell-based, human. The method, boiled down:
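Secreted TNFα in supernatant quantified by ELISA or AlphaLISA after 7 h culture on human IgG-coated wells (10 μg/ml coating). Cells were IFN-γ-differentiated THP-1 (10 ng/ml, 2 days), exposed to compound for 30 min at room temperature before plating.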

Where [2] appears, read: Syk enzyme assay, Test Example 1, read-out: IC50 of Syk-inhibitory activity.
Where [3] appears, read: THP-1, THP-1 cells, Table 22, read-out: IC50 in TNFα generation assay.

Structures are written as SMILES. Like-named read-outs stand apart in the source and are kept apart here.

For the compound `C[C@H](N)[C@@H](CC1CC1)Nc1nc(Nc2ccc3cnn(C)c3c2)c(C(N)=O)cc1F` [Example 006-361, 6-(((2R,3S)-3-amino-1-cyclopropylbutan-2-yl)amino)-5-fluoro-2-((1-methyl-1H-indazol-6-yl)amino)nicotinamide], the IC50 in test [1] (setting [2]) is < 10 nM; in the test with THP-1 cells (setting [3]), 65 to 130 nM.
On to `NC(=O)c1cc(F)c(N[C@@H]2CCCC[C@@H]2N)nc1Nc1cncc(-c2ccccc2)c1` [Example 006-113, 6-(((1R,2S)-2-aminocyclohexyl)amino)-5-fluoro-2-((5-phenylpyridin-3-yl)amino)nicotinamide], for which the IC50 in test [1] (setting [2]) was < 10 nM; with THP-1 cells (setting [3]), < 65 nM.
In the case of `CCC[C@@H](Nc1nc(Nc2ccnc(OCCOC)c2)c(C(N)=O)cc1F)[C@H](C)N` [Example 006-310, 6-(((2S,3R)-2-aminohexan-3-yl)amino)-5-fluoro-2-((2-(2-methoxyethoxy)pyridin-4-yl)amino)nicotinamide], the IC50 in test [1] (setting [2]) was < 10 nM; with THP-1 cells (setting [3]), 65 to 130 nM.
The matching figures for `COc1cc(Nc2nc(N[C@H](C3CC3)[C@H](C)N)c(F)cc2C(N)=O)ccn1` [Example 006-430, 6-(((1R,2S)-2-amino-1-cyclopropylpropyl)amino)-5-fluoro-2-((2-methoxypyridin-4-yl)amino)nicotinamide]: < 10 nM and 65 to 130 nM.
For `NC(=O)c1cc(F)c(N[C@@H]2CCCC[C@@H]2N)nc1Nc1cncc(-c2ccc(N3CCOCC3)cc2)c1` (relative stereo) [Example 004-222, 6-(cis-2-aminocyclohexylamino)-5-fluoro-2-((5-(4-morpholinophenyl)pyridin-3-yl)amino)nicotinamide], the IC50 in test [1] (setting [2]) was < 10 nM; in the test on THP-1 cells (setting [3]) it was 130 to 200 nM.
The matching figures for `NC(=O)c1cc(F)c(N[C@@H]2CCCC[C@@H]2N)nc1Nc1cncc(-c2cc[nH]c2)c1` (relative stereo) [Example 006-116, 2-((5-(1H-pyrrol-3-yl)pyridin-3-yl)amino)-6-((cis-2-aminocyclohexyl)amino)-5-fluoronicotinamide]: < 10 nM and 130 to 200 nM.
The corresponding values for `NC(=O)c1cc(F)c(N[C@@H]2CCCC[C@@H]2N)nc1Nc1cncc(-c2ccsc2)c1` (relative stereo) [Example 004-077, 6-(cis-2-aminocyclohexylamino)-5-fluoro-2-((5-(thiophene-3-yl)pyridin-3-yl)amino)-nicotinamide] are < 10 nM and 65 to 130 nM.
Consider `CC[C@@H](Nc1nc(Nc2cncc(-c3ccc(OC)cc3)c2)c(C(N)=O)cc1F)[C@H](C)N` [Example 006-277, 6-(((2S,3R)-2-aminopentan-3-yl)amino)-5-fluoro-2-((5-(4-methoxyphenyl)pyridin-3-yl)amino)nicotinamide], for which the IC50 is < 10 nM in test [1] (setting [2]) and 65 to 130 nM in the test with THP-1 cells (setting [3]).
With `CCCn1ncc2cc(Nc3nc(NC4CCCCC4N)c(F)cc3C(N)=O)ccc21` (stereo not drawn) [Example 002-126], the IC50 in test [1] (setting [2]) was < 10 nM; in the test with THP-1 cells (setting [3]), 65 to 130 nM.
The matching figures for `CCCC[C@@H](Nc1nc(Nc2cc(OC)nc(OC)c2)c(C(N)=O)cc1F)[C@H](C)N` [Example 006-405, 6-(((2S,3R)-2-aminoheptan-3-yl)amino)-2-((2,6-dimethoxypyridin-4-yl)amino)-5-fluoronicotinamide]: < 10 nM and 130 to 200 nM.
The corresponding values for `COc1ncc(Nc2nc(N[C@@H]3CCCC[C@@H]3N)c(F)cc2C(N)=O)c2cc[nH]c12` [Example 004-235] are < 10 nM and 65 to 130 nM.
The matching figures for `NCC(CCC(F)(F)F)Nc1nc(Nc2ccc3ncccc3c2)c(C(N)=O)cc1F` (stereo not drawn) [Example 006-304, 6-((1-amino-5,5,5-trifluoropentan-2-yl)amino)-5-fluoro-2-((quinolin-6-yl)amino)nicotinamide]: < 10 nM and 130 to 200 nM.
As to `CC[C@H](N)[C@@H](CC)Nc1nc(Nc2cnc(C)c(-n3nccn3)c2)c(C(N)=O)cc1F` [Example 006-380, 6-(((3R,4S)-4-aminohexan-3-yl)amino)-5-fluoro-2-((6-methyl-5-(2H-1,2,3-triazol-2-yl)pyridin-3-yl)amino)nicotinamide], the IC50 in test [1] (setting [2]) is 10 to 50 nM; in the test with THP-1 cells (setting [3]) it was 65 to 130 nM.
Regarding `CCC[C@@H](Nc1nc(Nc2cccc3ncccc23)c(C(N)=O)cc1F)[C@H](C)N` [Example 006-307, 6-(((2S,3R)-2-aminohexan-3-yl)amino)-5-fluoro-2-(quinolin-5-ylamino)nicotinamide], the IC50 in test [1] (setting [2]) is < 10 nM; with THP-1 cells (setting [3]) it was 65 to 130 nM.
Take `Cc1cnc2cc(Nc3nc(N[C@H](C)[C@H](C)N)c(F)cc3C(N)=O)ccc2n1` (racemic) [Example 006-196, 6-(((2R,3S)-3-aminobutan-2-yl)amino)-5-fluoro-2-((2-methylquinoxalin-6-yl)amino)nicotinamide 6-(((2S,3R)-3-aminobutan-2-yl)amino)-5-fluoro-2-((2-methylquinoxalin-6-yl)amino)nicotinamide]: the figures for the IC50 (in test [1] (setting [2]); in the test on THP-1 cells (setting [3])) were 10 to 50 nM and 65 to 130 nM, respectively.
The corresponding values for `NC(=O)c1cc(F)c(N[C@@H]2CCCC[C@@H]2N)nc1Nc1cnc(-n2cccn2)c(-n2nccn2)c1` [Example 006-449, 2-((6-(1H-pyrazol-1-yl)-5-(2H-1,2,3-triazol-2-yl)pyridin-3-yl)amino)-6-(((1R,2S)-2-aminocyclohexyl)amino)-5-fluoronicotinamide] are 50 to 100 nM and 130 to 200 nM.
As to `COc1nn(C)c2ccc(Nc3nc(N[C@H](CC(C)C)[C@H](C)N)c(F)cc3C(N)=O)cc12` [Example 006-587, 6-(((2S,3R)-2-amino-5-methylhexan-3-yl)amino)-5-fluoro-2-((3-methoxy-1-methyl-1H-indazol-5-yl)amino)nicotinamide], the IC50 in test [1] (setting [2]) is < 10 nM; in the test on THP-1 cells (setting [3]), 65 to 130 nM.
Turning to `NC(=O)c1cc(F)c(NC2CCCCC2N)nc1Nc1ccnc(-c2ccccc2F)c1` (stereo not drawn) [Example 002-131], the results for the IC50 (in test [1] (setting [2]); in the test with THP-1 cells (setting [3])) were < 10 nM and 65 to 130 nM, respectively.
The matching figures for `NC(=O)c1cc(F)c(NCC(N)c2ccccc2)nc1Nc1ccc2ncccc2c1` (stereo not drawn) [Example 014-005]: < 10 nM and < 65 nM.
Consider `NC(=O)c1cc(F)c(NC2CCCCC2N)nc1Nc1ccc2c(F)nn(CCF)c2c1` (stereo not drawn) [Example 002-205], for which the IC50 is < 10 nM in test [1] (setting [2]) and 65 to 130 nM in the test on THP-1 cells (setting [3]).
The matching figures for `NC(=O)c1cc(F)c(N[C@@H]2CCCC[C@@H]2N)nc1Nc1cncc(-c2ncccn2)c1` (relative stereo) [Example 004-214, 6-(cis-2-aminocyclohexylamino)-5-fluoro-2-((5-(pyrimidin-2-yl)pyridin-3-yl)amino)nicotinamide]: 10 to 50 nM and 130 to 200 nM.
For `COCCn1nc(C)c2cc(Nc3nc(NC4CCCCC4N)c(F)cc3C(N)=O)ccc21` (stereo not drawn) [Example 002-208], the IC50 in test [1] (setting [2]) is < 10 nM; in the test with THP-1 cells (setting [3]) it was 65 to 130 nM.
`NC(=O)c1cc(F)c(N[C@@H]2CCCC[C@@H]2N)nc1Nc1cncc(-c2ccc3c(c2)OCCO3)c1` (relative stereo) [Example 004-056]: the IC50 in test [1] (setting [2]) was < 10 nM; in the test on THP-1 cells (setting [3]), 130 to 200 nM.
In the case of `NC(=O)c1cc(F)c(N[C@@H]2CCCC[C@@H]2N)nc1Nc1ccnc2c1ccn2CC(F)(F)F` [Example 004-039], the IC50 in test [1] (setting [2]) was < 10 nM; in the test on THP-1 cells (setting [3]) it was 130 to 200 nM.
In the case of `CCCC[C@@H](Nc1nc(Nc2cncc(C3CC3)c2)c(C(N)=O)cc1F)[C@H](C)N` [Example 006-408, 6-(((2S,3R)-2-aminoheptan-3-yl)amino)-2-((5-cyclopropylpyridin-3-yl)amino)-5-fluoronicotinamide], the IC50 in test [1] (setting [2]) was < 10 nM; in the test with THP-1 cells (setting [3]), 130 to 200 nM.
The corresponding values for `NC(=O)c1cc(F)c(N[C@@H]2CCCC[C@@H]2N)nc1Nc1cncc(-c2cncs2)c1` (relative stereo) [Example 004-074, 6-(cis-2-aminocyclohexylamino)-5-fluoro-2-((5-(thiazol-5-yl)pyridin-3-yl)amino)-nicotinamide] are < 10 nM and 65 to 130 nM.
The corresponding values for `CC(=O)c1cncc(Nc2nc(N[C@@H]3CCCC[C@@H]3N)c(F)cc2C(N)=O)c1` (relative stereo) [Example 004-132, 2-((5-acetylpyridin-3-yl)amino)-6-(cis-2-aminocyclohexylamino)-5-fluoronicotinamide] are 10 to 50 nM and 65 to 130 nM.
`CC(C)C[C@@H](Nc1nc(Nc2ccc3ncccc3c2)c(C(N)=O)cc1F)C(N)=O` [Example 11, 6-(((2R)-1-amino-4-methyl-1-oxopentan-2-yl)amino)-5-fluoro-2-(quinolin-6-ylamino)nicotinamide]: the IC50 in test [1] (read-out: Syk-inhibitory activity (IC50)) is ≤ 1000 nM; in the test on THP-1 cells (THP-1, 7 h, IFN-γ-differentiated THP-1 cells on human IgG-coated plate, cultured 7 hours, read-out: TNFα generation inhibitory activity (IC50)), ≤ 200 nM.
Take `CC(C)C[C@H](CN)Nc1nc(Nc2ccnc(-n3nccn3)c2)c(C(N)=O)cc1F` [Example 006-154, (R)-2-((2-(2H-1,2,3-triazol-2-yl)pyridin-4-yl)amino)-6-((1-amino-4-methylpentan-2-yl)amino)-5-fluoronicotinamide]: the IC50 in test [1] (setting [2]) was < 10 nM; in the test on THP-1 cells (setting [3]), 65 to 130 nM.
In the case of `CCC[C@@H](Nc1nc(Nc2cncc(-c3cccc(OC)c3)c2)c(C(N)=O)cc1F)[C@H](C)N` [Example 006-284, 6-(((2S,3R)-2-aminohexan-3-yl)amino)-5-fluoro-2-((5-(3-methoxyphenyl)pyridin-3-yl)amino)nicotinamide], the figures for the IC50 (in test [1] (setting [2]); in the test on THP-1 cells (setting [3])) were < 10 nM and 130 to 200 nM, respectively.
